Laboratory results from patent publication US12606554B2, “Compounds and pharmaceutical compositions thereof for the treatment of diseases” (ONCO3R Therapeutics BV, priority 2019, dated 2026).

Experiments:
SIK1 = molecular target: T1, SIK1 (Homo sapiens, UniProt P57059); test: ADP-Glo kinase assay, SIK1; type: biochemical; settings: AMARA peptide 45 μM, 5 μM ATP, 120 min, read-out: SIM1 IC50
T1 construct: purchased Carna Biosciences 02-131
Source text: (§1) The ADP-Glo™ kinase assay is a luminescent technology assay which measures the ADP formed from a kinase reaction. In this specific study, the kinase reactions consisted of the phosphorylation of the AMARA peptide substrate (SignalChem, Cat #A11-58) by SIK1 (Carma Biosciences, Cat #02-131), SIK2 (ThermoFisher Scientific, Cat #PV4792) or SIK3 (SignalChem, Cat #S12-11G-100). In a second step the kinase reactions are terminated and all the remaining ATP is depleted. In a final step the ADP is converted into ATP and this newly synthesized ATP is measured by using a luciferase/luciferin reaction. The generated light is measured using an Envision plate reader, wherein the luminescent signal obtained positively correlates with the kinase activity.
(§2) The test compounds are prepared as a serial dilution of 10 point dose responses with ⅕ dilution steps in 100% DMSO starting from 2 mM highest concentration, diluted 1/20 in water and […] is transferred to the assay plates (PerkinElmer Inc., Cat #6007290).
(§3) 1% DMSO and 10 μM staurosporine final concentrations are used as negative and positive controls.
(§4) 2 μL enzyme-substrate mixture is added to the assay plates.
(§5) The reaction is started by adding 2 μL diluted ATP on the assay plates. Plates are centrifuged for a few seconds at 1000 rpm and gently shaken for 2 min followed by an incubation at RT for 120 min.
(§6) The reactions are stopped and the unconsumed ATP is depleted by adding 5 μL ADP-Glo Reagent (Promega, Cat #V9121B) to the reaction. The plates are centrifuged for a few seconds at 1000 rpm and incubated at RT for […] (ATP depletion).
(§7) The ADP is converted to ATP and luciferase and luciferin is introduced to detect ATP by adding 10 μL Kinase Detection Reagent (Promega, Cat #V913B+V914r) to the reaction. The plates are centrifuged for a few seconds at 1000 rpm and incubated at RT for 30 min (ADP detection).
(§8) Luminescence is measured on an Envision plate reader (PerkinElmer Inc.).
(§9) Raw data are generated following the read-out performed on the TopCount, plotted to generate dose response curves to calculate percentage inhibition (PIN) and average IC50 for each SIK homologue which are reported in the table below.

SIK3 = molecular target: T2, SIK3 (Homo sapiens, UniProt Q9Y2K2); test: ADP-Glo kinase assay, SIK3; type: biochemical; settings: AMARA peptide 45 μM, 5 μM ATP, 120 min
T2 construct: purchased SignalChem S12-11G-100
Source text: as §1, §2, §3, §4, §5, §6, §7, §8, §9

SIK2 = molecular target: T3, SIK2 (Homo sapiens, UniProt Q9H0K1); test: ADP-Glo kinase assay, SIK2; type: biochemical; settings: AMARA peptide 45 μM, 5 μM ATP, 120 min
T3 construct: purchased ThermoFisher Scientific PV4792
Source text: as §1, §2, §3, §4, §5, §6, §7, §8, §9

[1] = test system: LPS-induced TNFα in monocytes; test: Monocytes assay: LPS-triggered TNFα (ELISA); type: cell-based; settings: Homo sapiens, Monocyte, LPS 200 ng/mL, supernatant after 4 h
Description: SIK inhibition inhibits TNFα and increases IL-10 release in LPS triggered monocyte-derived macrophages (MdM) and dendritic cells (MdDCs) (Clark et al. 2012; Sundberg et al. 2014; Ozanne et al. 2015). This assay evaluates illustrative compounds of the invention for their inhibition of LPS-induced TNFα and LPS triggered IL-10 secretion in monocytes.
PBMCs are isolated from human blood samples (buffycoats). The buffy coat is aseptically transferred into a 50 mL Falcon tube, and diluted ½ in PBS. Falcon tubes are filled with 20 mL Lymphoprep™, on top of which 25 mL of the buffy coat is carefully added, tubes are centrifuged for 35 min at 400 g in temperature controlled centrifuge, without brake, at 25° C. PBMCs are aspirated from the white interface layer between sample and Lymphoprep™. PBMCs are washed five times in PBS. Cells are resuspended in RPMI 1640 complete medium supplemented with 10% FBS, 1% P/S, and cell density is determined using a hematologic analyzer (Sysmex XS-500i).
PBMCs are centrifuged at 300×g for 10 min and resuspended at a density of 1.0*10^7 cells/80 μL Miltenyi buffer (PBS, pH 7.4, 1% FBS, 2 mM EDTA).
Starting from this point of the protocol all steps are performed on ice. 20 μL of CD14+ micro-beads are added per 1.0*10^7 cells, the tube is mixed and incubated for 15 min in the fridge at 4° C. Cell suspension volume is adjusted to total volume of 100 mL using Miltenyi buffer, mixed gently and subsequently centrifuged for 10 min at 300×g. Supernatant is discarded and cell pellet is resuspended in 12 mL of Miltenyi buffer.
Four LS columns are placed in the MACS Separator (magnet) from Miltenyi Biotec, and are prewet by rinsing with 3 mL of MACS buffer per column. Three mL of cell suspension is added onto the column (max 1*10^8 of labelled cells/column), and columns are subsequently washed 3 times with 3 mL of Miltenyi buffer.
The columns are removed from the magnets, and 5 mL of Miltenyi buffer are added to the column to flush out the CD14+ fraction by pushing the plunger into the column. The flushed fractions are collected in a fresh 50 mL Falcon and volume is adjusted to 30 mL using Miltenyi buffer, cells are centrifuged for 10 min at 300×g. The obtained cell pellet is resuspended in 10 mL RPMI w/o FBS, and cell density is determined using a hematologic analyser (Sysmex XS-500i). 100 000 cells are seeded in 80 μL per well of a 96-well plate in RPMI 1640 medium supplemented with 10% FBS, 1% P/S.
A compound dilution plate is made in 100% DMSO by 3-fold dilution of 10 mM stock solution. An intermediate dilution plate (10× final concentration) is made by diluting the compound dilution plate 50-fold in RPMI medium.
10 μL of the 10× final concentration compound is added to the cells and incubated for 1 h at 37° C. before addition of trigger. […]

[2] = mice; Wein et al. 2016; cited from earlier work

T3 sequence (Q9H0K1 whole entry): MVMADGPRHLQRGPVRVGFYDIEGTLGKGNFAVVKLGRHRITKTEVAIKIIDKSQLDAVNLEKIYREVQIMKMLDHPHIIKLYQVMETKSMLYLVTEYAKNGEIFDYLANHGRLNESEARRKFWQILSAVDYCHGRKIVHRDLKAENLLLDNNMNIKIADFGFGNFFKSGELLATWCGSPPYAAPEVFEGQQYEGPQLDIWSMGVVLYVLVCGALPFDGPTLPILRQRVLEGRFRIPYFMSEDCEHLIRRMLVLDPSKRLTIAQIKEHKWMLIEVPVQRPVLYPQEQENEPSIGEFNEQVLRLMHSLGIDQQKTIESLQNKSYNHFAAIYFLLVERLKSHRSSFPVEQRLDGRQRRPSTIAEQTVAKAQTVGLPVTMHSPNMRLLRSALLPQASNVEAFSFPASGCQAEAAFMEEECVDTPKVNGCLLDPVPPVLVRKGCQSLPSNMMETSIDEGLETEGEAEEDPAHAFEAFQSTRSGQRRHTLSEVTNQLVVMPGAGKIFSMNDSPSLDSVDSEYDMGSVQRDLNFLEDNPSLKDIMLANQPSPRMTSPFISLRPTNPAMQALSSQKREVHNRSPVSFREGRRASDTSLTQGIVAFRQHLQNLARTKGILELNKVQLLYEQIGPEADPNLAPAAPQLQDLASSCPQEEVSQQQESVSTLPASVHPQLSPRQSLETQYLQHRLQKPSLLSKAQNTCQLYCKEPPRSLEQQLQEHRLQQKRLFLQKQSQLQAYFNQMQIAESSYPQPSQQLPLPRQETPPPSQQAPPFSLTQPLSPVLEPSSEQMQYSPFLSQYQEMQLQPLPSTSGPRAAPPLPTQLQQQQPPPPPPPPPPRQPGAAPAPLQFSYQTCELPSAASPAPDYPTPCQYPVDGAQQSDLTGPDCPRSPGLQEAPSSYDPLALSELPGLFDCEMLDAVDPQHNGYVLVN
T1 sequence (P57059 whole entry): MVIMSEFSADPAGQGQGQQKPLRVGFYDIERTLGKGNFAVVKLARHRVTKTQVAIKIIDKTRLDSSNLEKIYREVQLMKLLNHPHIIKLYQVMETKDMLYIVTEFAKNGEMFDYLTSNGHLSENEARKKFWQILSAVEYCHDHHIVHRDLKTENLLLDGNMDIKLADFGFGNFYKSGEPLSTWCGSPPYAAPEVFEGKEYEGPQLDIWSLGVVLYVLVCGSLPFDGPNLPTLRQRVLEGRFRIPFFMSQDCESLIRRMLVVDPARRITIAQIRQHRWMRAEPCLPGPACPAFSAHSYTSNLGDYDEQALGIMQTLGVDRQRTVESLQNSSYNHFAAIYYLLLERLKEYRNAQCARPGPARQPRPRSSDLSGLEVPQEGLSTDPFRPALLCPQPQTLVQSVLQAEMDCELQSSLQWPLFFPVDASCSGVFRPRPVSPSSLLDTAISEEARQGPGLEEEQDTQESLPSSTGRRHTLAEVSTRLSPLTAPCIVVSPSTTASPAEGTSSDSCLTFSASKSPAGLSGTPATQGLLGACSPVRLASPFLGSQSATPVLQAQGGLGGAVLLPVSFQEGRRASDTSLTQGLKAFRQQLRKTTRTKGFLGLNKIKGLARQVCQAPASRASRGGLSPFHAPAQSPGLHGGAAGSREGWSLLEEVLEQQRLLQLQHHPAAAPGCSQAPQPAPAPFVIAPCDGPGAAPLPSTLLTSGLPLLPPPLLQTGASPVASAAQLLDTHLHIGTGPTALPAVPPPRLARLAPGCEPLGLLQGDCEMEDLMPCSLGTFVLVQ
T2 sequence (Q9Y2K2 whole entry): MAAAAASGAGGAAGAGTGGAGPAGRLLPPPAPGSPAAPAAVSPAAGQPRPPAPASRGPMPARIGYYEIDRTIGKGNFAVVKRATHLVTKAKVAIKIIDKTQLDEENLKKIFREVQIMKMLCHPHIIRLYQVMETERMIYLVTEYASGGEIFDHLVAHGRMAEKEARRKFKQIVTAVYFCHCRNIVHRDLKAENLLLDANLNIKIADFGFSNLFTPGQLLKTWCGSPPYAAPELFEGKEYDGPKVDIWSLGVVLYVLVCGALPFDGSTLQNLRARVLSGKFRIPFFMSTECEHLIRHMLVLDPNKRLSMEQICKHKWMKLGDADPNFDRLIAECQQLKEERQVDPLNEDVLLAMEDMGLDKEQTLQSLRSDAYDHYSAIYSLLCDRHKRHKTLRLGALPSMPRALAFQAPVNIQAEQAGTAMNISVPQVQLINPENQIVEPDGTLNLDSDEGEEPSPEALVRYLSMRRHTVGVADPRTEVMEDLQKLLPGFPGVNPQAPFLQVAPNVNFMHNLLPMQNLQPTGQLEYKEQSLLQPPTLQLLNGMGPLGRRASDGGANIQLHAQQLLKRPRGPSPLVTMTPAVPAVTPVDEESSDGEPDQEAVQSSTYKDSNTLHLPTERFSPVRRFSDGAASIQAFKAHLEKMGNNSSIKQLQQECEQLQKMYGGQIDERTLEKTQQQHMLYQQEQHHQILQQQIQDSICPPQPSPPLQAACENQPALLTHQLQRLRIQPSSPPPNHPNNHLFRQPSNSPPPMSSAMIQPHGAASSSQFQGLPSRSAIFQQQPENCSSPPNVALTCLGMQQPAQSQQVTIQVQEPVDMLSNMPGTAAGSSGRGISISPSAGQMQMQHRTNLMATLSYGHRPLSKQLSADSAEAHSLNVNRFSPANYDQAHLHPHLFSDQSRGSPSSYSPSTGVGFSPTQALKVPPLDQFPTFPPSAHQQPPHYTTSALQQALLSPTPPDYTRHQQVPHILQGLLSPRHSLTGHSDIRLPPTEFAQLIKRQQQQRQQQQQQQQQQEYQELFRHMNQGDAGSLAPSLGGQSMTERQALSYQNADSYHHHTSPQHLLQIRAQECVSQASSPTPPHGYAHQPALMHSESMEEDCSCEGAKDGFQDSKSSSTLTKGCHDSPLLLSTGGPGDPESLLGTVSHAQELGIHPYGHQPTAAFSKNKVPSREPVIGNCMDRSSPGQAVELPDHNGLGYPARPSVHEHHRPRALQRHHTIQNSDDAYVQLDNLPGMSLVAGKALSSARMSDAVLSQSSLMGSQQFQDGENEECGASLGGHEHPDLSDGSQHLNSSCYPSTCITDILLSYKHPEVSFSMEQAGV

Compound | IC50 (SIK1) | IC50 (SIK3) | IC50 (SIK2) | EC50 [1] | bone formation and bone mass [2]
COc1cc(-c2cnn3cc(OCCN4CCOCC4)cnc23)cc2c1C(=O)N(CC(F)(F)F)CC2 [Cpd 4, 8-methoxy-6-[6-(2-morpholinoethoxy)pyrazolo[1,5-a]pyrimidin-3-yl]-2-(2,2,2-trifluoroethyl)-3,4-dihydroisoquinolin-1-one] | > 0.5 µM | 0.01 to 0.1 µM | 0.01 to 0.1 µM | – | –
COc1cc(-c2cnc3cc(OCCN4CCOCC4)cnn23)cc2c1C(=O)N(CC(F)(F)F)CC2 [Cpd 5, 8-methoxy-6-[7-(2-morpholinoethoxy)imidazo[1,2-b]pyridazin-3-yl]-2-(2,2,2-trifluoroethyl)-3,4-dihydroisoquinolin-1-one] | > 0.5 µM | 0.01 to 0.1 µM | 0.01 to 0.1 µM | – | –
COc1cc(-c2cnn3cc(OC(C)(C)CN4CC5(COC5)C4)ccc23)cc(OC(F)F)c1C(=O)N[C@@H]1C[C@@H]1F [Cpd 6, 2-(difluoromethoxy)-4-[6-[1,1-dimethyl-2-(2-oxa-6-azaspiro[3.3]heptan-6-yl)ethoxy]pyrazolo[1,5-a]pyridin-3-yl]-N-[(2S)-2-fluorocyclopropyl]-6-methoxy-benzamide] | > 0.5 µM | 0.01 to 0.1 µM | 0.01 to 0.1 µM | 0.1 to 1 µM | –
COc1ccc(N2C(=O)N(c3c(C)cccc3Cl)Cc3cnc(Nc4ccc(C5CCN(C)CC5)cc4OC)nc32)nc1 [YKL-05-099] | – | – | – | – | increased bone formation and bone mass
